One substance from patent US7144862B2, “Orally administered peptides to ameliorate atherosclerosis” (The Regents of the University of California, priority 2000, dated 2006) can be followed below.

The nature of series [1]: DSC, bilayer to hexagonal phase transition of DiPoPE. It counts as physicochemical. The following applies: heating scan rate 37°/h. Here is the method: A known amount of phospholipid was dissolved in chloroform. For one set of samples, peptide was dissolved in methanol and added to a solution of DiPoPE in chloroforn/methanol (2:1, v:v). For both, pure lipid samples and the organic solutions of lipid and peptide, solvent was removed under a slow stream of nitrogen. Residual solvent was removed under vacuum. […] For DMPC, four consecutive scans with a 60 minute equilibration time between scans were taken. DSC thermograms were analyzed using the software provided by MicroCal Inc., Amherst, Mass., and Origin, version 5.0.
In the current study we prepared the peptide-lipid mixtures in two ways. One was by adding the peptide in organic solvent to the lipid in organic solvent followed by depositing the material as a film and subsequently hydrating with buffer. In the other method, the peptide and lipid were mixed after each was hydrated separately. If the mixture comes to equilibrium prior to the DSC analysis, it should not matter how the peptide and lipid are originally mixed. However, membrane systems can equilibrate slowly, in which case there may be more peptide in the lipid when it was incorporated at high concentrations into the lipid film.

Series [2] is described as follows: Antibody detection by indirect ELISA after 16 weeks of daily injection. The class given is in vivo, mouse. The conditions noted are these: plasma at conclusion of 16-week injection period. How it is done:
To determine whether daily injections of peptides elicited any immune response in mice, indirect ELISA titration (Engvall (1980) Meth. Enzymol. 70:419–439) was carried out with plasma taken from mice at the time of organ collection (following sixteen weeks of daily injection). Plates were coated with the injected peptides or MoAI (10 μg/ml). Plates were incubated overnight. After thorough washing with borate buffered saline (pH 8.2) containing 0.05% Tween 20, and blocking with buffer (0.1% gelatin and 0.1% BSA in borate buffer) for 1 h, 200 μl of the diluted mouse plasma (1:100 dilution) samples were serially diluted 1:1 with borate-buffered saline. Biotinylated goat antibody to mouse IgG (0.1 μg/ml) was then added to the wells and the plates were treated with SA-HRP (Streptavidin-horse radish peroxidase) for an hour and developed with ABTS and peroxide as substrate. The plates were incubated overnight at room temperature after every addition of antigen/antibody and washed thoroughly with borate buffered saline (pH 8.2) containing 0.05% Tween 20, and blocked with buffer (0.1% gelatin and 0.1% BSA in borate buffer) for 1 h before the next addition.
(An ELISA detects its analyte on a solid surface through an enzyme-linked reagent.)

Series [3] has as its system C57BL/6J mice fed an atherogenic diet. In words: Aortic lesion formation, daily intraperitoneal injection for 16 weeks, atherogenic diet. The class given is in vivo, mouse. The following applies: 5F 20 μg or MoAI 50 μg daily i.p. Here is the method:
The livers were removed and weighed.
Histological evaluations were performed according to the method of Paigen et al. (Paigen et al. (1990) Arteriosclerosis 10: 316–323) with some modifications. Briefly, hearts were fixed for at least one week in the phosphate-buffered formaldehyde solution. After removing the lower ⅔ of the hearts, the remaining tissue was frozen in OCT medium (Tissue-Tek, Miles Inc., Elkhart, Ind.) and sectioned in a cryostat at −20° C. Alternate 20 μm sections were saved on slides, and observed for the beginning of the aortic root. Sections were then collected for an additional 600 μm, or until the aortic cross-section was rounded and the valve cusps were no longer evident. Slides were stained with Oil Red O, and counterstained with hematoxylin. Stained lesion cross-sectional areas were measured in consecutive slides 80 μm apart by image analysis (SigmaScan Pro, SPSS Scientific, Chicago, Ill.), and the average lesion area was determined for each aortic sinus over the 400 μm length (five slides) providing the greatest mean lesion area.

For series [4] the following is noted: mouse, in vivo, ip.
Procedure: Mice were acquired at six weeks of age, and randomized into groups of 20, except that a negative control group of 10 received no treatments and was given standard rodent chow. At eight weeks of age, the treatment groups were placed on a modified Thomas-Hartroft atherogenic diet (#TD88051; Teklad, Madison, Wis.), and injections were begun. […] Animals were injected intraperitoneally daily for 16 weeks, including weekends and holidays.
At the end of the study (week 16), at the last bleeding, the heart and the liver were excised. […] The livers were removed and weighed.
Series [5] in a line: Surface pressure measurements: monolayer exclusion pressure. The following applies: EPC monolayer; reproducibility ± 1 dyn/cm. It counts as physicochemical. Here is the method:
An insoluble monolayer of egg phosphatidylcholine (EPC) was spread at the air-water interface in a Teflon dish at room temperature to give an initial surface pressure (πi) in the range of 5–45 dyn/cm. A solution of peptides in PBS containing 1.5M Gdn. HCl was carefully injected in to the subphase to give a final concentration of 50 μg/dL. The Gdn. HCl was diluted in the subphase to a final concentration of ≦1 mM to allow the peptides to renature. The subphase was stirred continuously and the increase in EPC monolayer surface pressure (Δπ) was recorded until a steady state value was obtained. The value of the initial surface pressure (πi) at which the peptides no longer penetrate the EYPC monolayer i.e. the exclusion pressure (πe), was calculated by extrapolating the πi vs Δπ linear regression fit to Δπ=0 dyn/cm.

On to “Ac-DWLKAFYDKVFEKFKEFF-NH2 [Peptide 5F, Ac-D-W-L-K-A-F-Y-D-K-V-F-E-K-F-K-E-F-F-NH2]”, for which the “shift in TH of DiPoPE with mol fraction of peptide” value in series [1] is “linear increase in TH”. Further, in series [2], the “antibodies against the injected material” value is reported as “No antibodies were detected”. The “mean lesion cross-sectional area compared with PBS-injected animals” value in series [3] is “significantly lower mean lesion area”. Also, in series [4], the toxicity entry is given as “No toxicity”. Besides, the “Monolayer Exclusion Pressure(πc)” value in series [5] is given as 45 dyn/cm.
